Assay results as given in patent US10624917B2, “Compositions and methods useful for treating or preventing liver diseases or disorders, and promoting weight loss” (YALE UNIVERSITY, priority 2014, dated 2020).
“Also recorded” adds a separate entry of the source.

Legend:
[1] = test system: C57BL/6 mice on high-fat diet; assay: High-fat diet (HFD) NASH model; type: in vivo, mouse
Experimental: FIGS. 21A-21C illustrate the finding that digoxin reduces liver damage, inflammation, glycolysis and total cholesterol. FIG. […] The liver tissues were performed by H & E staining, and the neutrophils were stained with CD11b/Ly6G double positive cells by FACS. Data are expressed as the mean±SD from 5 mice in each treatment group. *p<0.05 determined by Student's t-test. […] Data are expressed as the mean±SD from 5 mice in each treatment group. *p<0.05 determined by Student's t-test. FIG. 21C: The liver total RNA were isolated from as procedure from FIG. 21a, and subjected to illumina transcriptome analysis. Over 15 genes that most highly expressed were listed. Data are expressed as the mean±SD from 3 mice in each treatment group
FIGS. 22A-22D illustrate the finding that digoxin reduces high fat feeding induced obesity in mice. Wild type C57BL/6 mice were supplied with high-fat diet food (Research diets D12451 45% fat) for 12 weeks with or without the concurrent IP injection of Digoxin (twice a week, 1.0 mg/kg) or PBS control. The body weight was carefully monitored as the change of each 3 day's average. […] FIG. 22A illustrates examples of mice on high-fat diet with (DIG) and without (Ctrl) digoxin. […] The ratio of white adipose tissue and bodyweight after 12 weeks is shown (FIG. 22C). […] Data are expressed as the mean±SD from 5 mice in each treatment group. *p<0.05 determined by Student's t-test.
FIGS. 24A-24G illustrate the finding that digoxin limits hepatic steatosis and inflammation. […] The liver tissues were applied for H & E staining, and graphs show quantification of NAFLD histological activity score (FIGS. 24A-24B). The liver tissue inflammation was also determined by the neutrophil and monocyte infiltration, which measured by CD11b/Ly6G and CD11b/Ly6C double positive cells using FACS ([…]). Representative FACS flows from digoxin versus saline control are shown (FIGS. 24F-24G). The quantification of neutrophils and monocytes in digoxin versus saline control was performed. Serum ALT level in digoxin versus saline control was measured (FIGS. 24C-24D). The steatosis maker of triacylglcerol (TG) accumulation in the lever after digoxin treatment versus saline control was determined (FIG. 24E). All data throughout the figure are shown as the mean±SD from 5 mice in each group. Statistical significance was determined by one-way ANOVA. *p<0.05, **p<0.01 for each digoxin group versus saline control.
(§1) C57BL/6J male mice were placed on a 45% high-fat diet (HFD) for […] with and without digoxin (ip 1 mg/kg twice a week). Digoxin, 1 mg/kg ip daily, in mice results in the therapeutic serum levels achieved in humans (0.5-2 ng/ml). Plasma ALT, liver histology, neutrophil staining, leukocytes profiling, mitochondrial reactive oxygen species (ROS) generation, and gene transcriptome microarrays were analyzed. The ability of digoxin to inhibit inflammasome in mouse and human macrophages was tested. The chronic plus binge model of alcoholic hepatitis and LPS/D-GalN hepatitis models were also performed.

[2] = test system: mice, chronic plus binge model of alcoholic hepatitis; assay: Chronic plus binge model of alcoholic hepatitis; type: in vivo, mouse
Experimental: as §1

in vivo = conditions: mouse, 1 mg/kg
Experimental: FIG. 19 is a bar graph illustrating plasma digoxin levels in mice. Saline or digoxin were daily injected in mice at a dose of 1.0 mg/kg. Plasma digoxin levels measured 24 hours after the final injection were at or below the therapeutic range for humans (0.8-2 ng/mL).
as §1

human macrophages = assay: Mitochondrial ROS production in human macrophages; type: cell-based; conditions: TLR and hydrogen peroxide stimulation
mouse macrophages = assay: Mitochondrial ROS production in mouse macrophages; type: cell-based; conditions: TLR and hydrogen peroxide stimulation
[3] = test system: C57BL/6 mice challenged with LPS/D-galactosamine; assay: LPS/D-GalN hepatitis (acute liver injury) model; type: in vivo, mouse
Experimental: FIGS. 23A-23D illustrate the finding that digoxin protects the severity of experimental acute liver failure. Digoxin was administrated intraperitoneally to C57BL/6 mice at dose level of 2, 1, 0.2, 0.05 mg/kg body weight and saline control for 1 hour, and then the mice were challenged with LPS (1 mg/kg body weight)/D-galactosamine (D-GalN) for 5 hours. The morphology of liver tissue was determined by H & E staining, and the inflammation was determined by the neutrophil infiltration of Gr-1 antibody staining Representative H & E stains (FIG. 23A, upper), and Gr-1 (FIG. 23A, lower) positive area of liver sections (original magnification ×100) from digoxin and saline control are illustrated. Graphs show quantification of injured (FIG. 23B) or Gr-1 (FIG. 23C) positive area by morphometry using Image J. *p<0.05 for each dosage of digoxin group versus saline control. The activity of the hepatic injury marker alanine transaminase (ALT) in serum level from digoxin versus saline control was measured (FIG. 23 D). All data throughout the figure are shown as the mean±SD. Statistical significance was determined by one-way ANOVA.
FIGS. 25A-25H illustrate the finding that digoxin alleviates hepatic oxidative stress and inflammasome activation. C57BL/6 mice were injected intraperitoneally with digoxin (1 mg/kg) and PBS control for 1 hour, and then challenged with LPS (1 mg/kg)/D-GlaN (500 mg/kg) for 5 h; C57BL/6 mice were on HFD with concurrent intraperitoneal injection of digoxin (1 mg/kg) for 12 weeks. The cellular oxidative stress and intracellular ROS production was monitored by intraperitoneal injection of DHE in last 30 min before the mice sacrificed. Representative DHE stains in LPS/D-GlaN (FIG. 25A) and HFD (FIG. 25B) from digoxin versus saline control are illustrated. The quantification of DHE positive area in digoxin versus saline control was performed (FIG. 25A, lower, and FIG. 25B, lower). The total RNA from liver tissue was isolated, and applied for gene expression of proIL-1β, TNFα, NLRP3 and HIF1a (FIGS. 25C-25F). The total liver protein was applied for protein expression of HIF1α, caspase-1, proIL-1β by western blot (FIG. 25H). The serum IL-1β was measured by ELISA (FIG. 25G). All data throughout the figure are shown as the mean±SD from 5 mice in each group. Statistical significance was determined by one-way ANOVA. *p<0.05, **p<0.01 for each digoxin group versus saline control.
as §1

[4] = test system: IL-1β secretion and caspase-1 activation in mouse macrophages; assay: Inflammasome inhibition in mouse macrophages; type: cell-based
Experimental: as §1

[5] = HFD 12 weeks, IP twice a week 1.0 mg/kg
[6] = HFD 12 weeks, ip 0.2 and 0.05 mg/kg twice a week, low dose-dependent manner
[7] = ip 1 mg/kg, LPS/D-GlaN (5 h) and HFD (12 weeks) mice
[8] = twice, a quarter and a twentieth of the human equivalent dose

SMILES: C[C@H]1O[C@@H](O[C@@H]2[C@@H](O)C[C@H](O[C@@H]3[C@@H](O)C[C@@H](O[C@H]4CC[C@@]5(C)[C@H](CC[C@@H]6[C@@H]5C[C@@H](O)[C@]5(C)C(C7=CC(=O)OC7)CC[C@]65O)C4)O[C@@H]3C)O[C@@H]2C)C[C@H](O)[C@H]1O (stereo partly drawn) [digoxin, 4-[(3S,5R,8R,9S,10S,12R,13S,14S)-3-[(2S,4S,5R,6R)-5-[(2S,4S,5R,6R)-5-[(2S,4S,5R,6R)-4,5-dihydroxy-6-methyl-oxan-2-yl]oxy-4-hydroxy-6-methyl-oxan-2-yl]oxy-4-hydroxy-6-methyl-oxan-2-yl]oxy-12,14-dihydroxy-10,13-dimethyl-1,2,3,4,5,6,7,8,9,11,12,15,16,17-tetradecahydrocyclopenta[a]phenanthren-17-yl]-5H-furan-2-one]
- fat deposition (liver oil red, TG content) ([1]; HFD 12 weeks, 1 mg/kg twice a week): reduces
- glycolysis [1, 5]: reduces
- high fat feeding induced obesity [1, 5]: reduces
- liver damage [1, 5]: reduces
- serum total cholesterol [1, 5]: reduces
- hepatic steatosis [1, 6]: limits
- liver inflammation [1, 6]: limits
- signal genes of ROS metabolism, antioxidant pathway and glycolysis (microarray) ([1]; HFD liver): down-regulated
- serum ALT ([1]; HFD+DIG, HFD alone 417±398 U/L, P<0.001): 91±73 U/L
- liver inflammation ([1]; HFD, IP twice a week 1 mg/kg): reduces; also recorded: limits
- hepatic steatosis ([1]; HFD, ip 1 mg/kg twice a week): limits
- histological injury ([1]; HFD, ip 1 mg/kg twice a week): reduced
- neutrophilic infiltrate ([1]; HFD, ip 1 mg/kg twice a week): reduced
- liver inflammation ([1]; digoxin started after 4 weeks HFD): significant reduction
- liver neutrophil ([1]; digoxin started after 4 weeks HFD, HFD alone 24.6%): 14.3%
- liver monocytes ([1]; digoxin started after 4 weeks HFD, HFD alone 31.6%): 19.1%
- body weight / weight gain ([1]; mice on HFD): less weight gain; also recorded: changes
- histological injury [2]: reduced
- neutrophilic infiltrate [2]: reduced
- serum ALT [2]: lower
- concentration at 24 h (in vivo): 0.8 to 2 ng/mL
- concentration at 24 h (in vivo; ip): 0.5 to 2 ng/mL
- mitochondrial ROS production (human macrophages): dose-dependently inhibited
- mitochondrial ROS production (mouse macrophages): dose-dependently inhibited
- histological injury ([3]; LPS/D-GalN hepatitis): reduced
- neutrophilic infiltrate ([3]; LPS/D-GalN hepatitis): reduced
- serum ALT ([3]; LPS/D-GalN hepatitis): lower
- hepatic oxidative stress [3, 7]: alleviates
- inflammasome activation [3, 7]: alleviates
- severity of experimental acute liver failure ([3]; ip 2, 1, 0.2, 0.05 mg/kg 1 hour before LPS/D-GalN for 5 hours): protects
- inflammation in an acute liver injury model ([3]; mouse, in vivo): inhibits
- HIF-1α protein [3, 8]: reduction
- IL-1β protein [3, 8]: reduction
- cleaved (P10) caspase-1 protein [3, 8]: reduction
- liver HIF-1α transcripts [3, 8]: reduction
- liver Pro-IL-1β transcripts [3, 8]: reduction
- liver hemorrhage and necrosis [3, 8]: improvement
- pro-IL-1β protein [3, 8]: reduction
- IL-1 β secretion [4]: inhibited
- caspase-1 activation [4]: inhibited
